Test results taken from ChEMBL document CHEMBL1201862, “PubChem BioAssay data set” (2004).
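Grown in 96-well plates, cells were treated for 48 hours with each compound at five concentrations. Insufficient inhibition: endpoint recorded as highest concentration tested. Here, GI50 denotes the concentration required for 50% inhibition of growth.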 The source made the active and inactive calls. Rule as the data show it: active = GI50 up to about 1.1 µM and inactive = higher.

Tests used:
Test in all cases: NCI tumour cell line growth inhibition, 48 h
[1] = system: A549
[2] = system: CAKI-1
[3] = system: CCRF-CEM
[4] = system: DMS-114
[5] = system: EKVX
[6] = system: HCT-116
[7] = system: HOP-92
[8] = system: M14
[9] = system: MOLT-4
[10] = system: Malme-3M
[11] = system: NCI-H522
[12] = system: OVCAR-3
[13] = system: OVCAR-4
[14] = system: SF-268
[15] = system: SF-539
[16] = system: SN12C
[17] = system: SNB-75
[18] = system: UACC-62

Measured: GI50

Nc1ccc(O)c2c1C(=O)c1c(N)ccc(O)c1C2=O
inactive: [1] > 100 µM | [2] > 100 µM | [3] > 100 µM | [4] > 100 µM | [5] > 100 µM | [6] > 100 µM | [7] > 100 µM | [8] > 100 µM | [9] > 100 µM | [10] > 100 µM | [11] > 100 µM | [12] > 100 µM | [13] > 100 µM | [14] > 100 µM | [15] > 100 µM | [16] > 100 µM | [17] > 100 µM | [18] > 100 µM

COC(=O)C1CC(C(=O)OC)c2nc3cc(C)c(C)cc3nc21 (configuration not stated)
inactive: [1] > 100 µM | [2] > 100 µM | [3] > 100 µM | [4] > 100 µM | [5] > 100 µM | [7] > 100 µM | [8] > 100 µM | [9] > 100 µM | [10] > 100 µM | [11] > 100 µM | [12] > 100 µM | [13] > 100 µM | [14] > 100 µM | [15] > 100 µM | [16] > 100 µM | [17] 36.3 µM | [18] > 100 µM

O=C(/C=C/c1c(O)ccc2ccccc12)c1cccc(O)c1
inactive: [1] > 100 µM | [2] > 100 µM | [3] 30.1 µM | [4] 41.3 µM | [5] > 100 µM | [6] > 100 µM | [7] > 62.8 µM | [8] > 100 µM | [9] 47 µM | [10] 59.8 µM | [11] 63.4 µM | [12] > 76.9 µM | [13] > 70 µM | [14] > 100 µM | [15] > 100 µM | [16] > 100 µM | [17] 71.6 µM | [18] 28.8 µM

CC1CC(=O)C(CC(=O)O)[C@H]1C(C(=O)C(=O)Nc1cc(Cl)ccc1Cl)[N+](=O)[O-] (some centres not stated)
inactive: [1] > 100 µM | [2] > 100 µM | [3] > 100 µM | [4] > 100 µM | [5] > 100 µM | [7] > 100 µM | [11] > 100 µM | [12] > 100 µM | [14] > 100 µM | [15] > 100 µM | [16] > 100 µM | [17] 85.9 µM | [18] > 100 µM

O=C1C2=C(c3ccccc31)C(c1ccccc1)NC(S)=N2 (configuration not stated)
inactive: [1] 45.9 µM | [2] 48.8 µM | [3] 30.1 µM | [4] 30.7 µM | [5] > 100 µM | [6] 29 µM | [7] 14.8 µM | [8] 55.1 µM | [9] 31.4 µM | [10] > 100 µM | [11] 33.7 µM | [12] 31.6 µM | [13] 26.1 µM | [14] 30.8 µM | [15] 19.2 µM | [16] > 100 µM | [17] 14.4 µM | [18] 29 µM

O=C1C2=C(c3ccccc31)C(c1ccc([N+](=O)[O-])cc1)NC(S)=N2 (configuration not stated)
inactive: [1] 48.5 µM | [2] > 100 µM | [3] 38.7 µM | [4] 36.8 µM | [5] > 100 µM | [6] 38.5 µM | [7] 51.1 µM | [8] 91.2 µM | [9] 35.4 µM | [10] 80.7 µM | [11] 30.5 µM | [12] 49.9 µM | [13] 42.6 µM | [14] 42.2 µM | [15] > 100 µM | [16] 47.4 µM | [17] 23.9 µM | [18] 43.5 µM

Nc1ccc2c(c1)C(=O)N(OS(=O)(=O)c1ccccc1)C2=O
inactive: [1] > 100 µM | [2] > 100 µM | [3] 76.6 µM | [4] > 100 µM | [5] > 100 µM | [6] > 100 µM | [7] > 100 µM | [8] > 100 µM | [10] 94.4 µM | [11] 21.5 µM | [12] > 100 µM | [13] > 100 µM | [14] > 100 µM | [15] > 100 µM | [16] > 100 µM | [17] > 100 µM | [18] > 100 µM

O=c1cc(-c2ccccc2)[nH]c2cc(Cl)cc(Cl)c12
inactive: [1] 53.3 µM | [2] 49 µM | [3] > 100 µM | [4] 26.4 µM | [6] 31.6 µM | [7] 25.5 µM | [8] > 100 µM | [9] > 100 µM | [10] 20.6 µM | [11] 12.1 µM | [13] 20.5 µM | [14] 28.4 µM | [15] 29.5 µM | [16] 69 µM | [17] 10.3 µM | [18] 23.2 µM

COc1ccc2nc(-c3cccs3)cc(C(O)CN3CCSCC3)c2c1 (configuration not stated)
inactive: [1] 30.1 µM | [2] 17.3 µM | [3] 11.9 µM | [4] 12.2 µM | [5] 29 µM | [7] 14.3 µM | [8] 18.1 µM | [9] 12.2 µM | [10] 15.2 µM | [11] 14.1 µM | [12] 36.8 µM | [13] 8.3 µM | [14] 27 µM | [15] 22.1 µM | [16] 25.1 µM | [17] 23.6 µM | [18] 17.7 µM
